# Assay results taken from patent US20240307351A1, “AGENT FOR ANTI-AGING OR FOR CELLULAR REJUVENATION” (TOHOKU UNIVERSITY, priority 2022, published 2024).
# Tests used:
# [1] = system: C57BL6 mice (92 weeks old); assay: Treadmill running test of aged mice; format: in vivo, mouse; conditions: aged C57BL6 mice (92 weeks old), oral, 50 mg/kg/day, 2 months
# Protocol: Water-suspended Compound #5 was orally administered to C57BL6 mice (92 weeks old) at a dose of 50 mg/kg/day per kg of mouse weight for 2 months ([MA5 addition group], n=5). After 2 months of oral administration, the mice were 101 weeks old.
# In addition, water was orally administered to C57BL6 mice (92 weeks old) for 2 months ([Vehicle group], n=5). After 2 months of oral administration, the mice were 101 weeks old.
# [2] = system: Mouse inner ear cells HEI-OC1; assay: RNA-Seq and ChIP-Atlas analysis of HEI-OC1 cells; format: cell-based; conditions: 10 µM
# Protocol: Mouse inner ear cells HEI-OC1 were cultured in 10% FBS-containing DMEM medium containing 10 µM of Compound #5 (dissolved in 0.1% DMSO) ([MA5 addition group], n=5).
# In addition, mouse inner ear cells HEI-OC1 were cultured in 10% FBS-containing DMEM medium containing […] 0.1% DMSO ([Vehicle group], n=5).
# RNA sequencing (RNA-Seq) analysis was performed on the HEI-OC1 cells in [MA5 addition group] and [Vehicle group] to identify genes whose expression levels changed (increased or decreased) in [MA5 addition group] as compared with [Vehicle group]. Using the results of these gene names, integrated analysis with ChIP-Atlas was performed to investigate transcription factors possibly related to these genes. The results of ChIP enrichment analysis (ChEA) are shown in Table 7, and the results of analysis by ENCODE and ChEA consensus TFs from ChIP-X are shown in Table 8.
# [3] = system: fibrosis-related genes (aSMA and Colla1); assay: Real-time PCR of fibrosis-related genes in renal tissue of α-Klotho gene-deficient mice; format: in vivo; conditions: oral, 10 mg/kg mouse weight/day, 28 to 60 days old
# Protocol: Water-suspended Compound #5 was orally administered to α-Klotho gene-deficient mice (28 days old) at a dose of 10 mg/kg mouse weight/day until 60 days old (Klotho homo KO mouse administration group, n=3).
# In addition, water was orally administered to wild-type mice (28 days old) and α-Klotho gene-deficient mice (28 days old) until 60 days old (n=3 for each of the wild-type non-administrated group and the Klotho homo KO mouse non-administrated group).
# Renal tissue was collected from each 60-day-old mouse according to a standard method, total RNA was extracted using a commercially available column extraction kit (RNeasy Micro Kit, manufactured by QIAGEN), and cDNA was synthesized from 1 μg of total RNA using ReverTra Ace(manufactured by TOYOBO CO., Ltd.). Thereafter, to quantify mRNA derived from two types of fibrosis-related genes (aSMA and Colla1) and mRNA derived from GAPDH as an internal standard, real-time PCR was performed according to a standard method using QuantStudio 5 Real-time PCR system (manufactured by Applied Biosystems) as a measuring instrument and THUNDERBIRD SYBR qPCR MasterMix (manufactured by TOYOBO CO., Ltd.) as a reaction liquid.
# SIRTI protein = assay: Amount of SIRT1 protein in RH30 cells by Western blotting; format: cell-based, human; conditions: 30 μM, 24 hours, compared with Control group (DMSO)
# Protocol: RH30 cells (human rhabdomyosarcoma cell line; gli gene expression+, N-myc gene expression+) at 1×10^6 cell/dish were seeded and cultured in a dish containing 10 mL of a culture solution (low-glucose-containing DMEM medium (glucose concentration of 1.0 g/dL) to which 10 wt. % of FBS was added). One day later, Compound #5 was added to have a concentration of 30 μM, and the mixture was cultured for 24 hours ([Compound #5 addition group]). Compound #9, Compound #13, Compound #21, Compound #30, or Compound #35 as the present compound was added in place of Compound #5, and the mixture was cultured in the same manner, respectively, as [Compound #9 addition group], [Compound #13 addition group], [Compound #21 addition group], [Compound #30 addition group], and […].
# On the other hand, as a control, DMSO (dimethyl sulfoxide) was added to have a concentration of 0.2 wt. %, and the mixture was cultured for 24 hours ([Control group]).
# After completion of culture, the cells were recovered, disrupted by a typical method, and the amount of each of the proteins (SIRTI proteins, etc.) in the cells was detected by Western blotting. Further, the results of quantification of each band in the detection results of the Western blotting in FIG. 6 through normalization with the band of β-actin as a loading control are shown in FIG. 7.
# [4] = system: NDUFS4 homozygous knockout mice (Ndufs4−/−mice); assay: Electron microscopic observation of liver tissue (fatty liver) of Ndufs4−/− mice; format: in vivo; conditions: oral, 0.1 kg/day per mg of mouse weight, 24 days, vs Control 1 group (water)
# Excerpt: Compound #5 was orally administered to NDUFS4 homozygous knockout mice (Ndufs4−/−mice) (4 weeks old) at a dose of 0.1 kg/day per mg of mouse weight for 24 days ([Compound #5 administration group]).
# In addition, water was orally administered to NDUFS4 homozygous knockout mice (Ndufs4−/−mice) for 24 days ([DMSO group; Control 1 group]). Further, water was orally administered to wild-type mice for 24 days ([Control 2 group]).
# [5] = system: various SIRTs (SIRT1, SIRT2, SIRT3, SIRT5, SIRT6, and SIRT7); assay: Expression levels of various SIRTs in HEI-OC1 cells by Western blotting; format: cell-based, mouse; conditions: HEI-OC1 cell line, 1, 3, 10 or 30 μM, 24 hours, compared with absence of MA5 (0.1% DMSO)
# Protocol: HEI-OC1 cells (mouse inner ear cell line) at 1×10^6 cell/dish were seeded and cultured in a dish containing 10 mL of a culture solution (low-glucose-containing DMEM medium (glucose concentration of 1.0 g/dL) to which 10 wt. % of FBS was added). After one day, 0.1% DMSO as a solvent of the compound or Compound #5 at various concentrations (1 μM, 3 μM, 10 μM, or 30 μM) was added, and the mixture was cultured for 24 hours ([Compound #5 addition group]). After completion of culture, the cells were collected, disrupted by a typical method, and the expression levels of various SIRTs (SIRT1, SIRT2, SIRT3, SIRT5, SIRT6, and SIRT7) in the cells were analyzed by Western blotting (see FIGS. 1-1 and 1-2).
structure (smiles),measurement,setting,value
"O=C(CC(C(=O)O)c1c[nH]c2ccccc12)c1ccc(F)cc1F (centres unmarked) [Compound #5, 4-(2,4-difluorophenyl)-2-(1H-indole-3-yl)-4-oxo-butanoic acid]",running time on a treadmill,[1],not reduced
same,time until exhaustion (percentage of mice that continue running),[1]; compared to Vehicle group,significantly improved
same,"transcription factors related to genes whose expression increased (ChIP enrichment analysis, ChEA)",[2]; Table 7,"SUZ^12 and EZH2, which are factors constituting polycomb repressive complex-2 (PRC2), which methylates histones, and SOX2"
same,transcription factors related to genes whose expression increased (ENCODE and ChEA consensus TFs from ChIP-X),[2]; Table 8,"PPARG (peroxisome proliferator-activated receptor γ), which is a longevity-related gene, MYC, which is one of the reprogramming factors necessary for the production of iPS cells, TRIM28"
same,renal fibrosis progressing with aging (aSMA and Colla1 mRNA),[3],inhibited
same,amount of SIRTI protein in cells,SIRTI protein,increased
same,fat deposition in hepatocytes (fatty liver),[4],clear reduction
same,expression levels of various SIRTs in the cells,[5],increased
